We go through one molecule from patent US20190125735A1, “INHIBITION OF P38 MAPK FOR THE TREATMENT OF CANCER” (Board of Regents, The University of Texas System, priority 2015, published 2019).

Test [1] has as its system HMLER cells. Briefly: Scratch/wound-healing assay, HMLER cells expressing FOXC2 variants. It counts as cell-based, human. The protocol: (§1) For this, phosphomimetic FOXC2(S367E) and non-phosphorylatable FOXC2(S367A) mutants were generated and their ability to bestow mesenchymal and stem-cell traits relative to wild-type FOXC2 (referred to as FOXC2) was evaluated.
The test system of another test is 4T1 cells. As to the kind of experiment: 4T1 orthotopic mouse mammary carcinoma model (primary tumor, lung metastasis, CTCs). In kind it is in vivo. An excerpt: In order to investigate this, the 4T1 mouse mammary carcinoma model, which recapitulates many of the characteristics of human breast cancer, was employed.
Tumor progression was monitored weekly using caliper measurements and bioluminescence. Starting week 3 post-implantation, 5 mice per group were sacrificed and surgically excised the primary tumors and lungs were surgically excised. […] This observation was corroborated by caliper measurements (FIG. 15C) and the bioluminescent signal emitted by these tumors (FIGS. 20A, 20B). Indeed, there were no significant differences in the latency and growth rates of the vehicle- and SB203580-treated primary tumors during this timecourse (FIGS. 15C and 20B).
NOD/SCID and BALB/c mice were purchased from the Jackson Laboratory (Bar Harbor, Me., USA). To examine primary tumor formation and spontaneous metastasis, luciferase-labeled 4T1 cells (1×10^4 or 5×10^4) were injected into the inguinal mammary fat-pad of BALB/c mice. For experimental metastasis studies, 0.5×10^6 luciferase-labeled MDA-MB-231 cells were injected into NOD/SCID mice via the tail vein. […] Mice were assessed weekly for tumor growth and metastasis via subcutaneous injection of D-Luciferin (150 mg/kg; Caliper LifeSciences, Hopkinton, Mass., USA) and bioluminescent imaging (IVIS imaging system 200 series; Xenogen Corporation, PerkinElmer, Waltham, Mass., USA). Primary tumor size was measured with a caliper as the product of two perpendicular diameters (mm^2). At the indicated timepoints, primary tumors and lungs were surgically excised, imaged and processed for histology.
Mice were orthotopically injected with red fluorescent protein (RFP)/luciferase-labeled 4T1 cells. Starting week 3 post-injection, blood was collected, via cardiac puncture, in EDTA-coated tubes and treated with Ammonium-Chloride-Potassium lysing buffer (Invitrogen). Cells were cultured in RPMI-1640 medium containing 10% fetal bovine serum and penicillin/streptomycin. RFP-positive colonies were counted after 3 days.

The subject of the next test is MDA-MB-231 cells. Briefly: Experimental metastasis model, MDA-MB-231 cells via tail vein of NOD/SCID mice. In kind it is in vivo, mouse. Conditions: daily injection beginning 48 h post-implantation. The text has this:
Since many breast cancer patients harbor occult micrometastases, at the time of diagnosis, and metastasis is often attributed to the systemic dissemination of tumor cells before or during surgical resection of the primary tumor (Pantel et al., 1999; Fehm et al., 2008), it was examined whether p38 inhibition could also prevent colonization and progression to macrometastasis. For this, an experimental metastasis model was employed, which circumvents the early steps of the metastatic cascade. Luciferase-labeled MDA-MB-231 cells were injected via the tail vein of NOD/SCID mice, and the emergence of lung metastases were monitored using bioluminescence. […] To eliminate the possibility of “off-target” effects, mice were intravenously injected with MDA-MB-231 cells expressing either control shRNA or p38 shRNA.
NOD/SCID and BALB/c mice were purchased from the Jackson Laboratory (Bar Harbor, Me., USA). […] Mice were assessed weekly for tumor growth and metastasis via subcutaneous injection of D-Luciferin (150 mg/kg; Caliper LifeSciences, Hopkinton, Mass., USA) and bioluminescent imaging (IVIS imaging system 200 series; Xenogen Corporation, PerkinElmer, Waltham, Mass., USA). Primary tumor size was measured with a caliper as the product of two perpendicular diameters (mm^2). […]

The test system of the next test is FOXC2. Briefly: FOXC2 transcript levels by qRT-PCR. It counts as cell-based, human. The following applies: treated vs vehicle. On the procedure: qRT-PCR was performed using SYBR Green (Applied Biosystems, Waltham, Mass., USA) for mRNAs and Taqman (Applied Biosystems) for microRNAs as described previously (Hollier et al., 2013).
On the technique in general: Real-time PCR tracks product formation cycle by cycle.

The test system of the next test is mesenchymal cells. Briefly: Scratch/wound-healing assay of mesenchymal mammary cells. In kind it is cell-based, human. The text has this: The effects of p38 inhibition on invasive potential, which strongly correlates with the formation of invadopodia, was investigated. These specialized actin-based cell membrane protrusions secrete matrix metalloproteinases, enabling degradation of the nearby extracellular matrix (Eckert et al., 2011). The formation of invadopodia was quantified by assessing the ability of cells to degrade FITC-conjugated gelatin.
Quantification of invadopodia (Eckert et al., 2011), scratch/wound-healing assays (Sarkar et al., 2015) fluorescence-activated cell sorting (FACS), and sphere-formation assays (Mani et al., 2008) were conducted as described previously.

The test system of test [2] is HMLER cells. Briefly: Sphere formation of HMLER cells expressing FOXC2 variants. In kind it is cell-based, human. On the procedure: as §1
Test [3] has as its system DU145 cells. Briefly: Wound healing assay, DU145 cells. It counts as cell-based, human. The following applies: DU145, 5 μM, 7 days. On the procedure:
Immunoblotting, Immunofluorescence, RTPCR, wound healing- and tumorsphere assays were performed as previously described (Sarkar et al., 2015). Cell viability (MTS) was assessed using the CellTiter96 Aqueous One-Solution Cell Proliferation Assay kit (Promega).

Test [4] has as its system DU145 cells. As to the kind of experiment: FACS CD44/CD24 in DU145 cells. Conditions: DU145, 5 μM, 7 days. In kind it is cell-based, human. The protocol: Fluorescence-activated cell sorting (FACS) for PSAHi & PSA−/lo cells and CD44Hi & CD24Lo cells was performed as described previously (Hollier et al., 2013) using BD Influx sorter.
The subject of the next test is BCR-ABL+ mouse ALL cells. The following applies: MSC co-culture.

Protocol for BCR-ABL+ mouse ALL cells: To measure cell proliferation, co-cultures of MSCs and luciferase-labeled leukemic cells were mixed with D-Luciferin (Biosynth, Itasca, Ill.) to a final concentration of 0.5 mg/mL. Samples were incubated at room temperature for 1 minute and were imaged with the IVIS Lumina imaging system (PerkinElmer, Waltham, Mass.).

Consider `C[S+]([O-])c1ccc(-c2nc(-c3ccc(F)cc3)c(-c3ccncc3)[nH]2)cc1` (centres unmarked) [SB203580, 4-(4-Fluorophenyl)-2-(4-methylsulfinylphenyl)-5-(4-pyridyl) 1H-imidazole], for which the Decrease in wound-closure in the test with HMLER cells [1] (HMLER-FOXC2(S367E) cells) is recorded as less than 30%. Moreover, the “Inhibition of migration (wound closure)” value in the test on HMLER cells [1] (HMLER-FOXC2 cells) and in the test with HMLER cells [1] (HMLER-vector cells) was greater than 70% throughout. Besides, the Primary tumor size result with 4T1 cells (4T1 cells, daily treatment, weeks 3-6) is “primary tumors of a similar size relative to vehicle-treated counterparts”. Besides, the “Lung metastases (bioluminescent signal)” value in the test with 4T1 cells (4T1 cells, systemic daily treatment) was “strikingly fewer lung metastases”. The “Metastatic burden (lung)” value is “failed to significantly reduce the metastatic burden” in the test on 4T1 cells (mice harboring 4T1-FOXC2(S367E) cells) and “significantly reduced the metastatic burden” with MDA-MB-231 cells. Also, the “Reduction of incidence of lung metastases compared to vehicle” value in the test with 4T1 cells (mice harboring 4T1-vector cells, daily SB203580) is recorded as greater than 20 fold. Besides, in the test on 4T1 cells (mice harboring 4T1-vector or 4T1-FOXC2(S367E) cells), the Primary tumor growth result is given as “no significant differences in primary tumor growth”. The “Microvessel density of primary tumors (CD31 immunohistochemistry)” value in the test with 4T1 cells (vs vehicle-treated) is on record as “did not reveal significant differences”. Further, the “CTCs recovered from blood” value was “very few CTCs were recovered” with 4T1 cells (week 6 post-implantation) and “no CTCs were recovered from SB203580-treated mice until week 5” in the test with 4T1 cells (weeks 3-5 post-implantation). Moreover, the Event-free survival entry in the test on MDA-MB-231 cells was “extended event-free survival”. Moreover, the FOXC2 transcript levels entry in the test on FOXC2 was “neither SB203580 nor p38 shRNA had a discernible effect on FOXC2 transcript levels”. Besides, the Migratory capacity entry in the test on mesenchymal cells is “markedly reduced the migratory capacity of mesenchymal cells”. Moreover, the Sphere-forming capacity entry in the test on HMLER cells [2] (HMLER-FOXC2(S367E) cells) is on record as “retained the ability to form spheres even in the presence of SB203580”; in the test on HMLER cells [2] (HMLER-FOXC2 cells) it was “reduced”. Also, the Migratory potential entry in the test with DU145 cells [3] is given as “significant reduction in migratory potential”. In addition, the “CD44^hi/CD24^lo fraction” value in the test on DU145 cells [4] is on record as “significant reduction”. Besides, in the test with BCR-ABL+ mouse ALL cells, the “Proliferation of leukemic cells” value is “did not affect proliferation or apoptosis of leukemic cells”.
